# Experimental data as given in US20240307382A1, “MODULATORS OF THE INTEGRATED STRESS PATHWAY” (Calico Life Sciences LLC, priority 2017, published 2024).
# Tested on: HEK293T cells carrying the ATF4 luciferase reporter
# Test: ATF4-Luc assay (ATF4 luciferase reporter, tunicamycin-treated cells)
# Assay type: cell-based
# Conditions: Homo sapiens, HEK-293T, 1 μg/mL tunicamycin, 7 hours
# Summary of the method: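 A stable HEK293T reporter line was made by placing the full-length human ATF4 5′-UTR ahead of a firefly luciferase sequence without its start methionine, delivered by retroviral transduction and puromycin selection. Cells were seeded at 30,000 per well in polylysine-coated 384-well plates, exposed next day to 1 μg/mL tunicamycin plus compound for 7 hours, and luminescence was read with One Glo.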
row,Compound,EC50 [nM]
1,"O=C(COc1ccc(Cl)c(F)c1)NC12CCC(NC(=O)c3cccnc3CO)(CC1)C[C@@H]2O [Compound 1086, N-{(3S)-4-[2-(4-chloro-3-fluorophenoxy)acetamido]-3-hydroxybicyclo[2.2.2]octan-1-yl}-2-(hydroxymethyl)pyridine-3-carboxamide]",> 2000
2,"O=C(COc1ccc(OC(F)(F)F)cc1)NC12CCC(NC(=O)c3cccnc3CO)(CC1)C[C@@H]2O [Compound 1087, 2-(hydroxymethyl)-N-[(3S)-3-hydroxy-4-{2-[4-(trifluoromethoxy)phenoxy]acetamido}bicyclo[2.2.2]octan-1-yl]pyridine-3-carboxamide]",> 2000
3,"CN(C)C(=O)c1cccnc1C(=O)NC12CC(NC(=O)COc3ccc(Cl)c(F)c3)(C1)C2 [Compound 1088, N^2-{3-[2-(4-chloro-3-fluorophenoxy)acetamido]bicyclo[1.1.1]pentan-1-yl}-N^3,N^3-dimethylpyridine-2,3-dicarboxamide]",1000 to 2000
4,"O=C(COc1ccc(Cl)c(F)c1)NC12CC(NC(=O)c3ccc(Cl)c(O)c3)(C1)C2 [Compound 1089, 4-chloro-N-{3-[2-(4-chloro-3-fluorophenoxy)acetamido]bicyclo[1.1.1]pentan-1-yl}-3-hydroxybenzamide]",50 to 250
5,"COCc1ccc(C(=O)NC23CC(NC(=O)COc4ccc(Cl)c(F)c4)(C2)C3)cn1 [Compound 1090, N-{3-[2-(4-chloro-3-fluorophenoxy)acetamido]bicyclo[1.1.1]pentan-1-yl}-6-(methoxymethyl)pyridine-3-carboxamide]",250 to 1000
6,"O=C(COc1ccc(Cl)c(F)c1)NC12CC(NC(=O)c3ncccc3CO)(C1)C2 [Compound 1091, N-{3-[2-(4-chloro-3-fluorophenoxy)acetamido]bicyclo[1.1.1]pentan-1-yl}-3-(hydroxymethyl)pyridine-2-carboxamide]",250 to 1000
7,"COc1cccnc1C(=O)NC12CC(NC(=O)COc3ccc(Cl)c(F)c3)(C1)C2 [Compound 1092, N-{3-[2-(4-chloro-3-fluorophenoxy)acetamido]bicyclo[1.1.1]pentan-1-yl}-3-methoxypyridine-2-carboxamide]",> 2000
8,"O=C(COc1ccc(Cl)c(F)c1)NC12CC(NC(=O)c3ccc4c(n3)CCCC4)(C1)C2 [Compound 1093, N-{3-[2-(4-chloro-3-fluorophenoxy)acetamido]bicyclo[1.1.1]pentan-1-yl]-5,6,7,8-tetrahydroquinoline-2-carboxamide]",50 to 250
9,"O=C(COc1ccc(C(F)(F)F)cc1)NC12CCC(NC(=O)c3cc(C(F)F)no3)(CC1)C[C@@H]2O [Compound 1094, 3-(difluoromethyl)-N-[(3S)-3-hydroxy-4-{2-[4-(trifluoromethyl)phenoxy]acetamido}bicyclo[2.2.2]octan-1-yl]-1,2-oxazole-5-carboxamide]",50 to 250
10,"O=C(COc1ccc2c(c1)OC(F)(F)O2)NC12CCC(NC(=O)c3cc(C(F)F)no3)(CC1)C[C@@H]2O [Compound 1095, N-[(3S)-4-{2-[(2,2-difluoro-2H-1,3-benzodioxol-5-yl)oxy]acetamido}-3-hydroxybicyclo[2.2.2]octan-1-yl]-3-(difluoromethyl)-1,2-oxazole-5-carboxamide]",50 to 250
11,"O=C(COc1ccc(Cl)c(C(F)(F)F)c1)NC12CCC(NC(=O)c3cc(C(F)F)no3)(CC1)C[C@@H]2O [Compound 1096, N-[(3S)-4-{2-[4-chloro-3-(trifluoromethyl)phenoxy]acetamido}-3-hydroxybicyclo[2.2.2]octan-1-yl]-3-(difluoromethyl)-1,2-oxazole-5-carboxamide]",< 50
12,"Cc1ccc(OCC(=O)NC23CCC(NC(=O)c4cc(C(F)F)no4)(CC2)C[C@@H]3O)cc1C [Compound 1097, 3-(difluoromethyl)-N-{(3S)-4-[2-(3,4-dimethylphenoxy)acetamido]-3-hydroxybicyclo[2.2.2]octan-1-yl}-1,2-oxazole-5-carboxamide]",50 to 250
13,"Cc1ccc(OCC(=O)NC23CCC(NC(=O)c4cc(C(F)F)no4)(CC2)C[C@@H]3O)cc1 [Compound 1098, 3-(difluoromethyl)-N-{(3S)-3-hydroxy-4-[2-(4-methylphenoxy)acetamido]bicyclo[2.2.2]octan-1-yl}-1,2-oxazole-5-carboxamide]",50 to 250
14,"O=C(COc1ccc(F)cc1)NC12CCC(NC(=O)c3cc(C(F)F)no3)(CC1)C[C@@H]2O [Compound 1099, 3-(difluoromethyl)-N-{(3S)-4-[2-(4-fluorophenoxy)acetamido]-3-hydroxybicyclo[2.2.2]octan-1-yl}-1,2-oxazole-5-carboxamide]",50 to 250
15,"O=C(COc1ccc(F)c(F)c1)NC12CCC(NC(=O)c3cc(C(F)F)no3)(CC1)C[C@@H]2O [Compound 1100, 3-(difluoromethyl)-N-{(3S)-4-[2-(3,4-difluorophenoxy)acetamido]-3-hydroxybicyclo[2.2.2]octan-1-yl}-1,2-oxazole-5-carboxamide]",50 to 250
16,"Cc1cc(OCC(=O)NC23CCC(NC(=O)c4cc(C(F)F)no4)(CC2)C[C@@H]3O)ccc1Cl [Compound 1101, N-{(3S)-4-[2-(4-chloro-3-methylphenoxy)acetamido]-3-hydroxybicyclo[2.2.2]octan-1-yl}-3-(difluoromethyl)-1,2-oxazole-5-carboxamide]",< 50
17,"O=C(COc1ccc(Cl)cc1)NC12CCC(NC(=O)c3cc(C(F)F)no3)(CC1)C[C@@H]2O [Compound 1102, N-{(3S)4-[2-(4-chlorophenoxy)acetamido]-3-hydroxybicyclo[2.2.2]octan-1-yl}-3-(difluoromethyl)-1,2-oxazole-5-carboxamide]",< 50
18,"O=C(COc1ccc(Cl)c(Cl)c1)NC12CCC(NC(=O)c3cnc(C(F)F)o3)(CC1)C[C@@H]2O [Compound 1103, N-{(3S)-4-[2-(3,4-dichlorophenoxy)acetamido]-3-hydroxybicyclo[2.2.2]octan-1-yl}-2-(difluoromethyl)-1,3-oxazole-5-carboxamide]",< 50
19,"O=C(COc1ccc(Cl)c(F)c1)NC12CCC(NC(=O)c3cnc(C(F)F)o3)(CC1)C[C@@H]2O [Compound 1104, N-{(3S)-4-[2-(4-chloro-3-fluorophenoxy)acetamido]-3-hydroxybicyclo[2.2.2]octan-1-yl}-2-(difluoromethyl)-1,3-oxazole-5-carboxamide]",< 50
20,"O=C(COc1ccc(Cl)c(F)c1)NC12CCC(NC(=O)c3cc(CO)ccn3)(CC1)[C@@H](O)C2 [Compound 1105, N-{(2S)-4-[2-(4-chloro-3-fluorophenoxy)acetamido]-2-hydroxybicyclo[2.2.2]octan-1-yl}-4-(hydroxymethyl)pyridine-2-carboxamide]",< 50
21,"CCc1ncc(C(=O)NC23CCC(NC(=O)COc4ccc(Cl)c(F)c4)(CC2)C[C@@H]3O)o1 [Compound 1106, N-{(2S)-4-[2-(4-chloro-3-fluorophenoxy)acetamido]-2-hydroxybicyclo[2.2.2]octan-1-yl}-2-ethyl-1,3-oxazole-5-carboxamide]",< 50
22,"Cc1nn(C)cc1C(=O)NC12CCC(NC(=O)COc3ccc(Cl)c(F)c3)(CC1)C[C@@H]2O [Compound 1107, N-{(2S)-4-[2-(4-chloro-3-fluorophenoxy)acetamido]-2-hydroxybicyclo[2.2.2]octan-1-yl}-1,3-dimethyl-1H-pyrazole-4-carboxamide]",> 2000
23,"Cc1nn(C)cc1C(=O)NC12CCC(NC(=O)COc3ccc(Cl)c(F)c3)(CC1)[C@@H](O)C2 [Compound 1108, N-{(3S)-4-[2-(4-chloro-3-fluorophenoxy)acetamido]-3-hydroxybicyclo[2.2.2]octan-1-yl}-1,3-dimethyl-1H-pyrazole-4-carboxamide]",50 to 250
24,"O=C(COc1ccc(Cl)c(F)c1)NC12CCC(NC(=O)c3cc4cc(Cl)ccc4o3)(CC1)[C@@H](O)C2 [Compound 1109, 5-chloro-N-{(2S)-4-[2-(4-chloro-3-fluorophenoxy)acetamido]-2-hydroxybicyclo[2.2.2]octan-1-yl}-1-benzofuran-2-carboxamide]",< 50
